Results on seven molecules are retold here after article PMC4102931 (Investigational new drugs, 2010).

Where two headings read alike, the source gives them in different places. Marks after values point to notes of the source that are not given here. Some results are limits rather than exact numbers.

For series [1] the following is noted: human, in vivo.
Series [2] in a line: clinical. The note with it: human, in vivo.
A short description of series [3]: Chemotherapy pharmacokinetics alone. The following applies: for Change in the geometric mean chemotherapy pharmacokinetic parameters when given alone or in combination with cediranib: limited pharmacokinetic data; for AUC / Cmax: alone (cycle 1, day 1), geometric mean (CV%).
The subject of series [4] is advanced solid tumors. Description: Tumor response evaluation. The class given is in vivo, human.
Series [5] has as its system patients with advanced CRC. The note with it: previous phase I study; cited from earlier work.
Series [6] deals with patients with advanced solid tumors. Briefly: Safety and tolerability: adverse events graded by NCI CTC version 3.0. It counts as in vivo, human.
In series [7] the test system is patients with a broad range of advanced solid tumors. The note with it: cited from earlier work.
The subject of series [8] is patients with advanced solid tumors. Description: Dose-limiting toxicities and maximum tolerated dose. The following applies: for MTD of cediranib: once-daily oral. It counts as in vivo, human.
The conditions of series [9]: ref Trial 2171IL0001, cited from earlier work; for Tmax: median (range).
The nature of series [10]: Steady-state pharmacokinetics of cediranib given with chemotherapy. It counts as in vivo, human. The note with it: for Css,max / AUC: geometric mean (CV%); for AUC / Tmax: human, plasma, oral; for AUC: AUCss; for Tmax: median (range).
The mark [11] stands for this setting: all arms, cediranib with chemotherapy.
Where [12] appears, read: 20 mg, Arm 1 (with mFOLFOX6), cediranib 20 mg, n=5.
[13] abbreviates: 20 mg, Arm 3A (with irinotecan), cediranib 20 mg, n=5.
Where [14] appears, read: 20 mg, Arm 3B (with irinotecan and cetuximab), cediranib 20 mg, n=3.
Setting [15] is: 30 mg, Arm 2 (with docetaxel), cediranib 30 mg, n=8.

`O=c1[nH]cc(F)c(=O)[nH]1` [5-FU]: in series [1], the Cmax is reported as 544 (72.9) ng/mL.

Consider `CC(=O)O[C@@]12CO[C@@H]1C[C@H](O)[C@@]1(C)C(=O)[C@H](O)C3=C(C)[C@@H](OC(=O)[C@H](O)[C@@H](NC(=O)OC(C)(C)C)c4ccccc4)C[C@@](O)([C@@H](OC(=O)c4ccccc4)[C@H]21)C3(C)C` [Docetaxel], for which the AUC in series [2] (AUC) is 3770 ng·h/mL.

For `CCc1c2c(nc3ccc(OC(=O)N4CCC(N5CCCCC5)CC4)cc13)-c1cc3c(c(=O)n1C2)COC(=O)[C@]3(O)CC` [Irinotecan], the results for the Cmax in series [2] (Cmax) and in [1] were 3290 ng/mL and 3040 (18.3) ng/mL, respectively.

In the case of `O=C1[O][Pt]2([NH][C@@H]3CCCC[C@H]3[NH]2)[O]C1=O` [Oxaliplatin, reference compound], the “Change in the geometric mean chemotherapy pharmacokinetic parameters when given alone or in combination with cediranib” value in [3] is under 2 fold.

Turning to `Nc1nc2[nH]cc(CCc3ccc(C(=O)N[C@@H](CCC(=O)O)C(=O)O)cc3)c2c(=O)[nH]1` [Pemetrexed], in [1], the AUC is reported as 295 (37.7)^e u.g.h/mL and the Cmax is recorded as 180 (14.2)^e u.g/mL.

For `CCc1c2c(nc3ccc(O)cc13)-c1cc3c(c(=O)n1C2)COC(=O)[C@]3(O)CC` [SN38], the AUC was 595 (53.5) ng/mL•h in series [3] (Arm 3A) and 482 (22.3) ng/mL•h in series [3] (Arm 3B (with cetuximab)). Moreover, the Cmax in [3] (Arm 3A) is 35.4 (50.1) ng/mL; in [3] (Arm 3B (with cetuximab)), 29.1 (21.0) ng/mL. Moreover, the “Change in the geometric mean chemotherapy pharmacokinetic parameters when given alone or in combination with cediranib” value in [3] is under 2 fold.

As to `COc1cc2c(Oc3ccc4[nH]c(C)cc4c3F)ncnc2cc1OCCCN1CCCC1` [cediranib, Cediranib], in [4] (46 patients with efficacy data, 35 evaluable by RECIST), the “Partial tumor responses, all arms” value is recorded as “four”. Besides, in series [4] (range 154-384), the “Median duration of treatment of the four patients with partial response” value worked out at 319 days. Moreover, in series [5], the “Recommended phase II dose in combination with mFOLFOX6” value is on record as 30 mg/day. The “Serious adverse events of hypertension” value in [6] (across all arms) is “Three”. Further, in series [6] (across all arms, n=59), the “CTC grade 1 hypertension” value is 21 patients, the “CTC grade 3 hypertension” value is “three”, the “CTC grade 3 leukopenia” value was “nine” and the “CTC grade 3 neutropenia” value was found to be 11 patients. In series [6] (across all arms, n=59), the “CTC grade 3 or 4 diarrhea of any causality” value turned out to be 12 patients, the “CTC grade 3 or 4 fatigue of any causality” value is 16 patients, the “CTC grade 3 or 4 leukopenia of any causality” value is 13 patients and the “CTC grade 3 or 4 neutropenia of any causality” value is 19 patients. For the same molecule, in series [6] (across all arms, n=59), the “CTC grade 4 leukopenia” value is given as “four” and the “CTC grade 4 neutropenia” value worked out at 8 patients. Besides, in [6] (across all arms, number (%)), the “Serious adverse event: fatigue” value is 16 (27%) patients, the “Serious adverse event: leukopenia” value was 12 (20%) patients and the “Serious adverse event: neutropenia” value was 18 (30%) patients. Further, in series [6] (across the study), the “Patients discontinued due to diarrhea” value was “three” and the “Patients discontinued due to fatigue” value is reported as “two”. Besides, in series [6] (setting [11]), the “Abdominal pain, any grade (%), Total (n=59)” value is listed as 16 (27%); the “Alopecia, any grade (%), Total (n=59)” value is reported as 15 (25%); the “Anorexia, any grade (%), Total (n=59)” value was 25 (42%); the “Decreased weight, any grade (%), Total (n=59)” value is 21 (36%). Further, in series [6] (setting [11]), the “Dehydration, any grade (%), Total (n=59)” value is given as 19 (32%); the “Dyspnea, any grade (%), Total (n=59)” value was 18 (31%); the “Headache, any grade (%), Total (n=59)” value was 16 (27%); the “Leukopenia, any grade (%), Total (n=59)” value is given as 20 (34%). Further, in series [6] (setting [11]), the “Nausea, any grade (%), Total (n=59)” value is 36 (61%); the “Neutropenia, any grade (%), Total (n=59)” value is given as 27 (46%); the “Vomiting, any grade (%), Total (n=59)” value was 30 (51%). Further, the “Adverse events of proteinuria (all CTC grade 1 or 2)” value in [6] (all study arms except arm 4) was “Seven”. For the same molecule, in series [6] (overall), the “Increases in blood TSH above the normal range (> 5 mU/L)” value turned out to be 26 patients. Also, the “Neutrophil counts of less than 1×10^9/L” value in series [6] (overall, n=59) is listed as “Fourteen”. In series [6] (total, number (%)), the “Patients discontinuing due to adverse events” value was 12 (20%) patients. For the same molecule, the “Doses at which cediranib monotherapy was generally well tolerated” value in series [7] is recorded as at most 45 mg/day. The MTD of cediranib in series [8] (in combination with docetaxel (arm 2)) stood at 30 mg. Besides, in series [8] (in combination with irinotecan and cetuximab), the “MTD of cediranib according to the protocol definition” value is recorded as 20 mg. In series [8] (in combination with irinotecan), the MTD of cediranib worked out at 20 mg. For the same molecule, the MTD of cediranib in series [8] (in combination with mFOLFOX6) is reported as 20 mg. The MTD of cediranib in [8] (in combination with pemetrexed (arm 4)) was 30 mg. The “Css,max” value in series [9] (single-agent cediranib 20 mg, multiple once-daily oral doses, n=11, geometric mean (CV%)) was 66.6 (52.9) ng/mL. For the same molecule, in [9] (single-agent cediranib 20 mg, n=11, geometric mean (CV%)), the AUCss is listed as 774 (51.6) ng/mL•h. The Tmax in series [9] (single-agent cediranib 20 mg, n=11) is reported as 3.0 (2.0, 6.4) h. For the same molecule, the AUCss in [9] (single-agent cediranib 30 mg, n=12, geometric mean (CV%)) was 741 (48.7) ng/mL•h. Further, the Tmax in series [9] (single-agent cediranib 30 mg, n=12) is on record as 2.1 (1.0, 4.0) h. The “Css,max” value in [10] (Arm 1 (with mFOLFOX6), cediranib 20 mg, n=5) is recorded as 65.3 (86.2) ng/mL. In addition, the “Css,max” value in [10] (Arm 2 (with docetaxel), cediranib 30 mg, n=8) is 62.5 (53.3) ng/mL. Further, the “Css,max” value in [10] (Arm 3A (with irinotecan), cediranib 20 mg, n=5) was 76.0 (57.6) ng/mL. The “Css,max” value in series [10] (Arm 3B (with irinotecan and cetuximab), cediranib 20 mg, n=3) is reported as 50.9 (126) ng/mL. Besides, the “Css,max” value in series [10] (Arm 4 (with pemetrexed), cediranib 30 mg, n=4) was 74.9 (31.6) ng/mL. Besides, in series [10] (setting [12]), the AUC came out at 986 ng·h/mL and the Tmax came out at 4 h. Besides, in series [10] (setting [13]), the AUC is 1010 ng·h/mL and the Tmax was 2.1 h. Moreover, in [10] (setting [14]), the AUC was 668 ng·h/mL and the Tmax is 4 h. Also, in [10] (setting [15]), the AUC came to 1100 ng·h/mL and the Tmax was 5 h.
